Assay results taken from ChEMBL document CHEMBL4007466, “Bioactive drimane sesquiterpenoids and aromatic glycosides from Cinnamosma fragrans” (Bioorg Med Chem Lett, 2017).

Tested on: MCF7
Experiment: Antiproliferative activity against human MCF7 cells by SRB assay
Type: functional, cell-based

IC50	Compound
3.7 µM	CC(=O)O[C@@H]1C=C2C(=O)O[C@@H]3O[C@H](C4=C[C@@H](OC(C)=O)[C@H]5C(C)(C)CCC[C@]5(C)C4=O)O[C@@]23[C@@]2(C)CCCC(C)(C)[C@H]12
1.3 µM	CC(=O)O[C@@H]1C=C2C(=O)OC[C@]2(O)[C@@]2(C)CCCC(C)(C)[C@H]12 [CINNAMOSMOLIDE]
> 20 µM	COc1cc(O[C@@H]2O[C@H](CO[C@@H]3OC[C@](O)(CO)[C@H]3O)[C@@H](O)[C@H](O)[C@H]2O)cc(OC)c1OC
> 20 µM	C[C@@H]1O[C@@H](OC[C@H]2O[C@@H](OC(=O)[C@@]3(C)CCC[C@]4(C)C5=C(COC5=O)[C@@H](O)C[C@@H]34)[C@H](O)[C@@H](O)[C@@H]2O)[C@H](O)[C@H](O)[C@H]1O
1.6 µM	CC(=O)O[C@@H]1C=C(C=O)[C@@](O)(C=O)[C@@]2(C)CCCC(C)(C)[C@H]12
> 20 µM	COc1ccc(O[C@@H]2O[C@H](CO[C@@H]3OC[C@](O)(CO)[C@H]3O)[C@@H](O)[C@H](O)[C@H]2O)cc1OC
> 20 µM	O=Cc1ccc(O[C@@H]2O[C@H](CO)[C@@H](O)[C@@H](O)[C@H]2O)cc1 [HELICIDE]
> 20 µM	Cc1ccc2c(c1)C(C(C)C)CCC2=O (centres undefined)
> 20 µM	CC1=C(C=O)[C@@]2(C)CCCC(C)(C)[C@@H]2CC1=O
2 µM	CC(=O)O[C@@H]1C=C([C@H]2O[C@@H]3OC(=O)C4=C[C@@H](OC(C)=O)[C@H]5C(C)(C)CCC[C@]5(C)[C@]43O2)[C@](O)(C=O)[C@@]2(C)CCCC(C)(C)[C@H]12
> 20 µM	CC1(C)CCC[C@]2(C)[C@H]3COC(=O)C3=CC[C@@H]12 [CINNAMOLIDE]
12.4 µM	CC1(C)CCC[C@]2(C)[C@@H](C=O)C(C=O)=CC[C@@H]12 [POLYGODIAL]

Compound	IC50
CC(=O)O[C@@H]1C=C([C@H]2O[C@@H]3OC(O)C4=C[C@@H](OC(C)=O)[C@H]5C(C)(C)CCC[C@]5(C)[C@]43O2)[C@](O)(C=O)[C@@]2(C)CCCC(C)(C)[C@H]12 (some centres undefined)	0.6 µM
CC[C@@]1(O)C(=O)OCc2c1cc1n(c2=O)Cc2cc3ccccc3nc2-1 [CAMPTOTHECIN]	0.03 µM
